The term IC50 denotes the point on the concentration scale where inhibition reaches its midpoint. One may read the MIC as the lowest concentration found to suppress growth.

What all share (format): cell-based
Experiment [1] has as its system M. smegmatis mc^2155. The experiment can be described thus: Inhibitor studies with Mycobacterium smegmatis: growth. On the procedure:
(§1) Inhibitor studies with Mycobaterium smagmatis. An exponential culture of M. smegmatis mc^2155 in Middlebrook 7H9 medium containing 0.05% Tween 80 and 1% glucose was used to inoculate a culture in the same medium but with 0.4% glucose to A600=0.05. The inhibitor NTF1836 was added from a stock solution in Me2SO at 0, 10, 20, 30 and 40 μM to duplicate 40 ml aliquots of the culture in 125 ml flasks to produce a final Me2SO content of ≦0.04%. The cells were incubated at 37° C. and 250 rpm. At A600˜0.25 and subsequent doublings in cell density, a volume of culture was removed sufficient to provide analysis of GlcN-Ins and MSH as described above.

Experiment [2] has as its system mycothiol biosynthesis in M. smegmatis mc^2155. The experiment can be described thus: Inhibitor studies with Mycobacterium smegmatis: GlcN-Ins and MSH content by HPLC. The conditions noted are these: 30 μM, after 12 h. The protocol:
as §1

Experiment [3] concerns M. tuberculosis. As to the kind of experiment: Growth of M. tuberculosis in broth culture, 7 days (optical density, plate counts). The conditions noted are these: for OD600: day 7, starting OD600 0.08.
The subject of experiment [4] is MshC within M. tuberculosis. As to the kind of experiment: Mycothiol and GlcN-Ins content of M. tuberculosis, day 7.
For experiment [5], the system named is Mycobacterium smegmatis mc^2155 ATCC 700084. As to the kind of experiment: MIC by broth dilution assay.
Experiment [6] concerns Staphylococcus aureus. The experiment can be described thus: MIC by broth dilution assay. Particulars: for MIC: n = 3. (In general: Dilution methods test growth across graded concentrations, often in twofold steps.)
In experiment [7] the test system is Enterococcus faecalis ATCC 29212. The experiment can be described thus: MIC by broth dilution assay.
Experiment [8] has as its system M. smegmatis. As to the kind of experiment: Growth of M. smegmatis parent and MSH mutant strains in the presence of INH. On the procedure:
Using the parental strain mc^2155, the Myco504 mutant in mshB that produces 5-10% of normal MSH in exponential growth, and the mutant strain 49 that produces 0% of normal MSH, the effect of 0-30 μg per ml INH upon growth was examined. […] This is seen in FIG. 13 for growth in the presence of 10 μg per ml INH.

In brackets after ≈: the same amount, converted by molar mass.

Take `CN(CCCNC(=O)c1ccc2c(c1)N(Cc1cccc(Cl)c1)C(=O)c1ccccc1[S+]2[O-])C1CCCCC1` (centres unmarked) [NTF1836]: the growth rate entry in experiment [1] (30 μM) is given as “half the normal rate”. Also, in experiment [1] (40 μM, after 8 h), the growth entry was “completely inhibited”. Besides, the GlcN-Ins content entry in experiment [2] is reported as “twice the normal level”. In addition, the OD600 in experiment [3] (20 uM) was 1.304 ± 0.014; in experiment [3] (30 uM) it was 0.600 ± 0.049; in experiment [3] (50 uM) it was 0.271; in experiment [3] (75 uM) it was 0.12. Moreover, the IC50 in experiment [3] (Mycobacterium tuberculosis, 168 h, 7 days, by optical density and by plate counts of viable bacteria, read-out: IC50 for growth inhibition of M. tuberculosis) is 20 to 30 µM. The GlcN-Ins in experiment [4] (20 uM) is on record as 2.77 ± 0.09 nmoles/10^9 bacteria; in experiment [4] (30 uM), 3.49 ± 0.10 nmoles/10^9 bacteria; in experiment [4] (50 uM) it was 4.28 nmoles/10^9 bacteria; in experiment [4] (75 uM), 4.22 nmoles/10^9 bacteria. Besides, the GlcN-Ins/mycothiol is 0.09 in experiment [4] (20 uM), 0.18 in experiment [4] (30 uM), 0.428 in experiment [4] (50 uM) and 1.21 in experiment [4] (75 uM). Besides, the mycothiol in experiment [4] (20 uM) was determined as 27.8 ± 2.5 nmoles/10^9 bacteria; in experiment [4] (30 uM), 19.1 ± 2.5 nmoles/10^9 bacteria; in experiment [4] (50 uM), 10.0 nmoles/10^9 bacteria; in experiment [4] (75 uM), 3.5 nmoles/10^9 bacteria. In addition, the “growth inhibition, in words” value in experiment [5] (M. smegmatis), in experiment [6] (Staphylococcus aureus) and in experiment [7] was “inhibitory” throughout. The MIC in experiment [5] (Mycolicibacterium smegmatis, ATCC700084|MC^2155, Middlebrook 7H9 + 1% glucose, n = 3) came out at 16 µg/mL; in experiment [6] (ATCC25923, Staphylococcus aureus ATCC 25923, TSB) it was 128 µg/mL (≈ 227 µM); in experiment [6] (Staphylococcus aureus RN450, TSB) it was 64 µg/mL (≈ 113 µM); in experiment [7] (ATCC29212, Todd Hewitt, n = 3), 64 µg/mL (≈ 113 µM).
With `NNC(=O)c1ccncc1` [INH, isoniazid], in experiment [8] (2 μg per ml INH and above), the “growth of strain 49 (0% MSH)” value is reported as “no effect” and the “growth of strain mc^2155” value is given as “became inhibited”. In experiment [8] (10 μg per ml INH), the “growth of strain 49 (0% MSH)” value is listed as “grows at the same rate as in the absence of INH”, the “growth of strain Myco504 (5-10% MSH)” value is “markedly inhibited” and the “growth of strain mc^2155” value is “markedly inhibited”.
